Experiments:
[1] = system: cancer cell lines of Table 2 (A549, A549/CR, A549/PR, CAPAN-1, NCI-H1048, MDA-MB-231, Mia PaCa-2, SNU-324, OVCAR3, PA-1, PANC-1, U-87 MG); assay: Cell viability assay (WST) with combination synergy analysis (Bliss score); type: cell-based, human; conditions: combination with various DNA damage inducers, FIGS. 1 to 25; culture ended on days 7 to 9
Protocol: Most cell lines were obtained from the American Type Culture Collection (ATCC) or the Korean Cell Line Bank (KCLB). Combination experiments in cisplatin-resistant and paclitaxel-resistant cell lines were performed at the Asan Preclinical Evaluation center for cancer therapeutiX of Asan Medical Center, Seoul. All cell lines were maintained in appropriate growth medium for the cell line in 100-pi dishes oRT75 (75 cm2) flasks, cultured at 37° C. with 5% CO2, and passaged every 3-4 days. Growth medium conditions and cell line information are listed in Table 2, and the cells were counted using Countess (Invitrogen) to obtain the number of viable cells. Mutation and HRD status by cell type are described in Table 3.
The next day, compound-87 was diluted 1/2 to 1/4 to a concentration of 20 μM to 0.002 μM and treated at a set concentration range, and the co-administered drug was diluted 1/2 to 1/3 to a concentration of 100 μM to 0.00046 μM and treated at a 1:1 (v/v) ratio. Finally, the treatment ratio of compound-87 and the co-administered substance was between 1:20000 and 1:0.00015, and in clinical practice, compound-87: drug to be co-administered can be treated at a ratio of 1:10000 to 1:0.0001.
PANC-1 (wild-type BRCA1/BRCA2) pancreatic cancer cells were treated with compound-87 at concentrations of […], and E7016, a PARP inhibitor as a co-administered agent at concentration of 0.078, 0.156, 0.313, 0.625, 1.25, 2.5, 5, or 10 μM (FIG. 25). Cell culture was terminated on days 7 to 9, and cell viability and synergistic effect were evaluated for each combination of concentrations.
Cell viability was measured by a colorimetric assay using water-soluble tetrazolium salt (WST). […]
Results are normalized to DMSO-treated groups as 100% and expressed as the percent of viable cells upon compound addition. […]
The synergy of each compound was analyzed using Combenefit software (Cambridge Research UK, Cambridge Institute, University of Cambridge, United Kingdom), and synergy was evaluated by using Blliss (Ref: Di Veroli et al., 2016, Bioinformatics 32(18):2866-2868). […]

[2] = system: human pancreatic cancer cells Mia PaCa-2; assay: Subcutaneous xenograft mouse model of Mia PaCa-2 pancreatic cancer cells, tumor growth inhibition; type: in vivo; conditions: day 24
Protocol: For in vivo efficacy study in a subcutaneous xenograft mouse model of human pancreatic cancer cells Mia PaCa-2, co-administration of compound-87 as a PRMT5 inhibitor according to an example of the present invention and Gemcitabine as an anti-metabolite of a chemotherapeutic agent, was performed. To produce a pancreatic cancer xenograft model, 5 million Mia PaCa-2 cells were injected subcutaneously into the right flank of female nude mice, and tumor growth was monitored.
To evaluate the anticancer effect, mice were divided into six groups when the tumor volume reached approximately 150 mm^3 on average. […] The solvent-treated group (vehicle group) or the compound-87 treatment group was administered orally on a 3-day administration/4-day non-administration schedule, and gemcitabine was administered intraperitoneally twice a week for 24 days (Day 0-Day 23). All mice were euthanized on Day 24, 24 hours after the last administration.

CN1CCC(Oc2ccc3c(c2)OCCN(C[C@H](O)CN2CCc4ccccc4C2)C3=O)CC1 [Compound-87, 4-[(2R)-3-(3,4-dihydro-1H-isoquinolin-2-yl)-2-hydroxy-propyl]-8-[(1-methyl-4-piperidyl)oxy]-2,3-dihydro-1,4-benzoxazepin-5-one]
inhibition of cell viability, combination treatment compared to single agent [1]: enhanced inhibition effects of cell viability
tumor growth inhibition rate ([2]; compound-87 25 mg/kg combined with gemcitabine 60 mg/kg i.p. twice a week): 67.7%
tumor growth inhibition rate ([2]; compound-87 25 mg/kg monotherapy, oral, 3 days on/4 off): 42.6%
tumor growth inhibition rate ([2]; compound-87 50 mg/kg combined with gemcitabine 60 mg/kg i.p. twice a week): 77.0%
tumor growth inhibition rate ([2]; compound-87 50 mg/kg monotherapy, oral, 3 days on/4 off): 56.0%
